Experimental data taken from a polymer gas permeability compilation.

Row | SMILES | N2 permeability | O2 permeability | CO2 permeability | H2 permeability
1 | *=CC1CC(C=*)C(COS(=O)(=O)c2ccc(C)cc2)C1 (repeat unit) | 0.06 Barrer | 0.37 Barrer |  | 
2 | *C(=C(*)c1ccc(CCCC)cc1)c1ccccc1 (repeat unit) | 11 Barrer | 37 Barrer | 160 Barrer | 
3 | *C(=C(*)c1ccc(S(=O)(=O)O)cc1)c1ccc(C(C)(C)C)cc1 (repeat unit) | 11 Barrer | 45 Barrer | 340 Barrer | 
4 | *C(=C(*)c1ccc(S(=O)(=O)O)cc1)c1ccc(S(=O)(=O)O)cc1 (repeat unit) | 0.28 Barrer | 2.5 Barrer | 21 Barrer | 
5 | *C(=C(*)c1ccc([Si](C)(C)CCCCCCCC)cc1)c1ccc(CCCC)cc1 (repeat unit) | 7.9 Barrer | 25 Barrer | 110 Barrer | 
6 | *C(C(=O)OC(C)C)C(*)C(=O)OC(C)(C)C (repeat unit) | 9 Barrer | 21 Barrer |  | 133 Barrer
7 | *C(C(=O)OC(C)C)C(*)C(=O)OC1CCCCC1 (repeat unit) | 3 Barrer | 8 Barrer |  | 41 Barrer
8 | *C(C(=O)OC1CCCCC1)C(*)C(=O)OC(C)(C)C (repeat unit) | 5 Barrer | 17 Barrer |  | 72 Barrer
9 | *CC(*)(C)C (repeat unit) | 0.76 Barrer | 2.89 Barrer |  | 13.3 Barrer
10 | *CC(*)c1ccc(O)cc1 (repeat unit) | 0.015 Barrer | 0.12 Barrer |  | 
11 | *CC(C#N)(C#N)CC(*)OC(C)=O (repeat unit) | 0.0138 Barrer | 0.16 Barrer |  | 
12 | *CC1CC(*)OCO1 (repeat unit) | 0.018 Barrer | 0.024 Barrer |  | 0.93 Barrer
13 | *Nc1ccc(C(=O)c2ccc(NC(=O)c3cc(C(*)=O)cc(C(C)(C)C)c3)cc2)cc1 (repeat unit) | 0.23 Barrer | 1.16 Barrer | 4.96 Barrer | 
14 | *Nc1ccc(C(=O)c2ccc(NC(=O)c3cccc(C(*)=O)c3)cc2)cc1 (repeat unit) |  | 0.069 Barrer | 0.32 Barrer | 
15 | *O[Si](*)(C)CCCCCC (repeat unit) | 103 Barrer | 236 Barrer |  | 
16 | *Oc1ccc2nc(-c3ccccc3)c(-c3ccc(-c4nc5cc(*)ccc5nc4-c4ccccc4)cc3)nc2c1 (repeat unit) |  |  |  | 17.2 Barrer
17 | *[Si](C)(C)CCCCCCCC[Si](*)(C)C (repeat unit) | 76.2 Barrer | 188 Barrer |  | 
18 | *[Si](C)(C)c1ccc([Si](*)(C)C)cc1 (repeat unit) | 3.39 Barrer | 14.1 Barrer |  | 
19 | *[Si](C)(C)c1cccc([Si](*)(C)C)c1 (repeat unit) | 31.9 Barrer | 75.6 Barrer |  | 
20 | *c1c(C)cc(C)c(-n2c(=O)c3cc4c(=O)n(*)c(=O)c4cc3c2=O)c1C (repeat unit) | 8.44 Barrer | 36.3 Barrer |  | 235 Barrer
21 | *c1ccc(-c2nc3cc(-c4ccc5[nH]c(*)nc5c4)ccc3[nH]2)cc1 (repeat unit) |  | 0.004 Barrer |  | 0.16 Barrer
22 | *c1ccc(Cc2ccc(N3C(=O)c4ccc(C(=O)c5ccc6c(c5)C(=O)N(*)C6=O)cc4C3=O)cc2)cc1 (repeat unit) | 0.02 Barrer | 0.211 Barrer |  | 4.03 Barrer
23 | *c1nc2cc(-c3ccc4[nH]c(-c5cc(Br)c(*)cc5Br)nc4c3)ccc2[nH]1 (repeat unit) |  | 0.07 Barrer |  | 1.89 Barrer

Continued, values first:

Row | N2 permeability | O2 permeability | CO2 permeability | H2 permeability | SMILES
24 | 116 Barrer | 434 Barrer | 2160 Barrer |  | *Oc1cc2c(cc1O*)C1(CC2(C)C)CC(C)(C)c2cc3c(cc21)Oc1c(c(C(F)(F)F)c(*)c(*)c1S(=O)(=O)c1ccccc1)O3 (repeat unit)
25 | 5.92 Barrer | 14 Barrer | 81 Barrer |  | *Oc1ccc(S(=O)(=O)c2ccc(Oc3c(C)cc(C(c4cc(C)c(*)c(C)c4)(C(F)(F)F)C(F)(F)F)cc3C)cc2C(O)(C(F)(F)F)C(F)(F)F)c(C(O)(C(F)(F)F)C(F)(F)F)c1 (repeat unit)
26 | 0.22 Barrer | 1.5 Barrer | 5.4 Barrer |  | *Oc1ccc(S(=O)(=O)c2ccc(Oc3ccc(C(C)(C)c4ccc(*)c(C(O)(C(F)(F)F)C(F)(F)F)c4)cc3C(O)(C(F)(F)F)C(F)(F)F)cc2)cc1 (repeat unit)
27 | 1 Barrer | 5 Barrer |  | 46.4 Barrer | *c1c(C)cc(C)c(N2C(=O)c3ccc(C(=O)c4ccc5c(c4)C(=O)N(*)C5=O)cc3C2=O)c1C (repeat unit)
28 | 0.732 Barrer | 4.42 Barrer |  | 40 Barrer | *c1c(C)cc(C)c(N2C(=O)c3ccc(Oc4ccc(Oc5ccc6c(c5)C(=O)N(*)C6=O)cc4)cc3C2=O)c1C (repeat unit)
29 | 1.62 Barrer | 8.2 Barrer |  | 68.6 Barrer | *c1c(C)cc(C)c(N2C(=O)c3ccc(Sc4ccc5c(c4)C(=O)N(*)C5=O)cc3C2=O)c1C (repeat unit)
30 | 0.0517 Barrer | 0.348 Barrer |  | 5.01 Barrer | *c1ccc(-c2ccc(N3C(=O)c4ccc(C(=O)Oc5ccc(C(c6ccc(OC(=O)c7ccc8c(c7)C(=O)N(*)C8=O)cc6)(C(F)(F)F)C(F)(F)F)cc5)cc4C3=O)cc2)cc1 (repeat unit)
31 | 0.109 Barrer | 0.677 Barrer |  | 8.38 Barrer | *c1ccc(-c2ccc(N3C(=O)c4ccc([Si](C)(C)c5ccc6c(c5)C(=O)N(*)C6=O)cc4C3=O)cc2)cc1 (repeat unit)
32 | 0.164 Barrer | 0.917 Barrer |  | 11.8 Barrer | *c1ccc(Cc2ccc(N3C(=O)c4ccc(C(=O)Oc5ccc(C(c6ccc(OC(=O)c7ccc8c(c7)C(=O)N(*)C8=O)cc6)(C(F)(F)F)C(F)(F)F)cc5)cc4C3=O)cc2)cc1 (repeat unit)
33 | 0.076 Barrer | 0.501 Barrer |  | 8.31 Barrer | *c1ccc(Cc2ccc(N3C(=O)c4ccc(Oc5ccc(C(c6ccc(Oc7ccc8c(c7)C(=O)N(*)C8=O)cc6)(C(F)(F)F)C(F)(F)F)cc5)cc4C3=O)cc2)cc1 (repeat unit)
34 | 0.15 Barrer | 0.91 Barrer | 4.2 Barrer | 11 Barrer | *c1ccc(Oc2ccc(C(=O)c3ccc(Oc4ccc(C(*)(c5ccccc5)C(F)(F)F)cc4)cc3)cc2)cc1 (repeat unit)
35 | 0.11 Barrer | 0.54 Barrer | 2.8 Barrer | 8.9 Barrer | *c1ccc(Oc2ccc(C(C)(C)c3ccc(Oc4ccc(N5C(=O)c6ccc(C(=O)c7ccc8c(c7)C(=O)N(*)C8=O)cc6C5=O)cc4)cc3)cc2)cc1 (repeat unit)
36 | 0.084 Barrer | 0.55 Barrer |  | 8.95 Barrer | *c1ccc(Oc2ccc(N3C(=O)c4ccc(Oc5ccc(C(c6ccc(Oc7ccc8c(c7)C(=O)N(*)C8=O)cc6)(C(F)(F)F)C(F)(F)F)cc5)cc4C3=O)cc2)cc1 (repeat unit)
37 | 0.026 Barrer | 0.183 Barrer |  | 4.77 Barrer | *c1ccc(Oc2ccc(N3C(=O)c4ccc(Oc5ccc6c(c5)C(=O)N(*)C6=O)cc4C3=O)cc2)cc1 (repeat unit)
38 | 0.027 Barrer | 0.2 Barrer |  | 5.61 Barrer | *c1ccc(Oc2ccc(N3C(=O)c4ccc(S(=O)(=O)c5ccc6c(c5)C(=O)N(*)C6=O)cc4C3=O)cc2)cc1 (repeat unit)
39 | 0.023 Barrer | 0.24 Barrer |  | 6.56 Barrer | *c1ccc2c(c1)C(=O)n1c-2nc2ccc(Oc3ccc4c(c3)nc3n4C(=O)c4ccc(*)cc4-3)cc21 (repeat unit)
40 | 0.155 Barrer | 0.977 Barrer |  | 13.3 Barrer | *c1ccc2c(c1)nc1n2C(=O)c2ccc(C(=O)Oc3ccc(C(c4ccc(OC(=O)c5ccc6c(c5)C(=O)n5c-6nc6ccc(*)cc65)cc4)(C(F)(F)F)C(F)(F)F)cc3)cc2-1 (repeat unit)
41 | 0.016 Barrer | 0.149 Barrer | 0.598 Barrer | 3.75 Barrer | *c1cccc(N2C(=O)c3ccc(Oc4ccc(Oc5ccc6c(c5)C(=O)N(*)C6=O)cc4)cc3C2=O)c1 (repeat unit)
